Measurements reported in PMC9909315, “SY-707, an ALK/FAK/IGF1R inhibitor, suppresses growth and metastasis of breast cancer cells” (Acta Biochimica et Biophysica Sinica, 2022).

What was measured:
LTK = LTK (Homo sapiens, UniProt P29376); experiment: HTRF kinase enzyme assay; type: biochemical; details: ATP at Km
Protocol: (§1) Homogeneous time-resolved fluorescence (HTRF) assay was performed to analyze kinase enzyme activity and compound potency using HTRF ® KinEASE ^TM-TK kit (Cisbio Bioassays, Shanghai, China). Compound SY-707 was serially diluted by 3 folds from 1 mM stock solution in DMSO, and 4 μL of the diluted solution of the compounds was added to 96 μL of reaction buffer (50 mM HEPES, pH 7.0, 0.1 mM Na 3VO 4, 0.01% BAS, 5 mM MgCl 2, 1 mM DTT), then 2.5 μL of 4× compound solution and 5 μL of 2× kinases solution were added to a 384-well plate (OptiPlate-384; PerkinElmer, Wellesley, USA ). The resulted solutions were briefly mixed, centrifuged and incubated for 5 min. Finally, 2.5 μL of 4× ATP/TK peptide (ATP at K m for each kinase) solution was added to the reaction system to initiate the reaction. The enzymatic reaction was carried out for 60-120 min at 23°C, then terminated by addition of 5 μL of detection solution containing TK antibody-cryptate and 5 μL of Streptravidin-XL-665. The mixture was incubated for additional 1 h at 23°C. The fluorescent signals were measured with an EnVision multilabel plate reader (PerkinElmer). IC 50 values of the compounds were calculated using the GraFit software (Version 6.0) and presented as the mean of three independent experiments performed in duplicate.

PYK2 = PYK2 (Homo sapiens, UniProt Q14289); experiment: HTRF kinase enzyme assay; type: biochemical; details: ATP at Km
Protocol: as §1

ALK [1] = target: T1, ALK (Homo sapiens, UniProt Q9UM73); experiment: HTRF kinase enzyme assay; type: biochemical; details: ATP at Km
T1 sequence (Q9UM73 19-1620): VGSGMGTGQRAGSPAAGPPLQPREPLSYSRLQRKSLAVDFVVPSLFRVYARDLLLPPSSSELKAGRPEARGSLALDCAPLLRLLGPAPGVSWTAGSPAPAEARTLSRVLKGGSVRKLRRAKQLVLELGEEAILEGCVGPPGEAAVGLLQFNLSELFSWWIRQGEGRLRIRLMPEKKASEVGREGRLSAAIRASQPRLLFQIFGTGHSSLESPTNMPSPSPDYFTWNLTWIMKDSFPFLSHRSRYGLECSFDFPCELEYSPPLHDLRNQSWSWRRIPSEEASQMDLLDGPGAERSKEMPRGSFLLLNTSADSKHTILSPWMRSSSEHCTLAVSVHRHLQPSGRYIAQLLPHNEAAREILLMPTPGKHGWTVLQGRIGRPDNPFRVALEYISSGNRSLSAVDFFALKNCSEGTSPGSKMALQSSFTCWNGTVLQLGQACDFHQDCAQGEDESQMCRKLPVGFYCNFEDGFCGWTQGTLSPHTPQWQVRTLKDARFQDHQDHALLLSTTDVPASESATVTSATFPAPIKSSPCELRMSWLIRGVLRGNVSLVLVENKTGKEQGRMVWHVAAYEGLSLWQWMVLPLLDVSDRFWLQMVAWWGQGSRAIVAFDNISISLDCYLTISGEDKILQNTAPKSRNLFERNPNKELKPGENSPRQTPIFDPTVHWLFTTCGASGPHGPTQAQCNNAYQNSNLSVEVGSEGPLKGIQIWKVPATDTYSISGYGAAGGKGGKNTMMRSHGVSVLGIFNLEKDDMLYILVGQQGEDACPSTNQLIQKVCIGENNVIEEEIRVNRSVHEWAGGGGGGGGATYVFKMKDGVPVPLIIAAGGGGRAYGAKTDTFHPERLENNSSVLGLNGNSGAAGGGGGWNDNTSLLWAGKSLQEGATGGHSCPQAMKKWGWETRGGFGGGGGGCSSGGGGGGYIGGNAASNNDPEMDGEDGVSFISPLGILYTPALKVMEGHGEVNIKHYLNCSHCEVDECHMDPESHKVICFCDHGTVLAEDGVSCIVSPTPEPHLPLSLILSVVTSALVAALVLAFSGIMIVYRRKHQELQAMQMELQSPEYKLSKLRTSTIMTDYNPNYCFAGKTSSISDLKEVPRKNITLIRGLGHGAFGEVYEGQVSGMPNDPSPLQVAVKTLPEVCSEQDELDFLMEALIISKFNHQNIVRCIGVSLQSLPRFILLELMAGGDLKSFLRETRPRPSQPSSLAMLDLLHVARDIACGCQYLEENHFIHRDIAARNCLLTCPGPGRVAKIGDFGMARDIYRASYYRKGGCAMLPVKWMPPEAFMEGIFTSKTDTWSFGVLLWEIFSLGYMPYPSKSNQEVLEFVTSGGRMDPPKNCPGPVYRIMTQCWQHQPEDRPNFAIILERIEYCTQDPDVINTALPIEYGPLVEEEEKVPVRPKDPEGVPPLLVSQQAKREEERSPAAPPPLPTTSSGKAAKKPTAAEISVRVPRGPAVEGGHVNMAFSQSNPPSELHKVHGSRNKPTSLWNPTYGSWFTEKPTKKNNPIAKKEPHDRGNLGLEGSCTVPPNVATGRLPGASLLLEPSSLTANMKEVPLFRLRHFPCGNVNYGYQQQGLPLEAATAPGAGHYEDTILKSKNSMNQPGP
Protocol: as §1

FES = FES (Homo sapiens, UniProt P07332); experiment: HTRF kinase enzyme assay; type: biochemical; details: ATP at Km
Protocol: as §1

FER = FER (Homo sapiens, UniProt P16591); experiment: HTRF kinase enzyme assay; type: biochemical; details: ATP at Km
Protocol: as §1

IRK = IRK (Homo sapiens, UniProt P06213); experiment: HTRF kinase enzyme assay; type: biochemical; details: ATP at Km
Protocol: as §1

IGF1R = IGF1R (Homo sapiens, UniProt P08069); experiment: HTRF kinase enzyme assay; type: biochemical; details: ATP at Km
Sequence of IGF1R (P08069 31-1367): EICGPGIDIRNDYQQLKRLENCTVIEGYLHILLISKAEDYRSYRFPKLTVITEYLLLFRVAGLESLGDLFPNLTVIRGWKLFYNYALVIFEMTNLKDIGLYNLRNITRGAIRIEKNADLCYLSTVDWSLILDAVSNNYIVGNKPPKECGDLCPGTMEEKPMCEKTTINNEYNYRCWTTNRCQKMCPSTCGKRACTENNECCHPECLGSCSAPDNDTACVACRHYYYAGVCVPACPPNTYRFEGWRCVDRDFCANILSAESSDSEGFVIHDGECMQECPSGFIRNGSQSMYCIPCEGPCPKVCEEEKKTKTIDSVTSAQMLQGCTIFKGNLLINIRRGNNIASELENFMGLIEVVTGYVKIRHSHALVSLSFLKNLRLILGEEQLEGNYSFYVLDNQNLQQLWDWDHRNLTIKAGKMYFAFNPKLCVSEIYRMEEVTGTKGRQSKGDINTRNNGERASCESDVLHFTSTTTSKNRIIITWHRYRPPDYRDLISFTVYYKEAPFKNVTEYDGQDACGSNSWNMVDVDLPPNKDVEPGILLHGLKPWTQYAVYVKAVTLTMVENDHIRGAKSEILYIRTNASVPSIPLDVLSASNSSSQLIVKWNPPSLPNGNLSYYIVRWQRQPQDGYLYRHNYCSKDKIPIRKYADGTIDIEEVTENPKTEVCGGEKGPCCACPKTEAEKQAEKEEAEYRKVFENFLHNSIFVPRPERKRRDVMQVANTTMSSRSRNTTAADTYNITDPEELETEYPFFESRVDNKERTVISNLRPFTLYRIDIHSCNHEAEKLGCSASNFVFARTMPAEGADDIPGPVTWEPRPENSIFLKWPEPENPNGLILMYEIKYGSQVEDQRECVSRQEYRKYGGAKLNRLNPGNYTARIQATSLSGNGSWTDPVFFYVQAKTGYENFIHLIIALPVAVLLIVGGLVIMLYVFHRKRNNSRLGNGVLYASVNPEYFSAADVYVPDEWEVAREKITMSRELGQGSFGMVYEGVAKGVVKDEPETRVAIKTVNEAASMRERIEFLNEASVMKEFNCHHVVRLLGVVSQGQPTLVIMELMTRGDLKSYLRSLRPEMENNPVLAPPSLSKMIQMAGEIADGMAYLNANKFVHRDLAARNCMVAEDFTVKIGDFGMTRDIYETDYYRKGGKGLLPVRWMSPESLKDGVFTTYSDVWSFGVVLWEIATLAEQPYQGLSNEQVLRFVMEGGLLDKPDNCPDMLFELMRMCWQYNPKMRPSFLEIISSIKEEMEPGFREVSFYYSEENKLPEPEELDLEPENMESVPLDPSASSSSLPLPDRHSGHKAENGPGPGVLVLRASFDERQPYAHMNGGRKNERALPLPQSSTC
Protocol: as §1

ACK = ACK (Homo sapiens, UniProt Q07912); experiment: HTRF kinase enzyme assay; type: biochemical; details: ATP at Km
Sequence of ACK (Q07912 whole entry): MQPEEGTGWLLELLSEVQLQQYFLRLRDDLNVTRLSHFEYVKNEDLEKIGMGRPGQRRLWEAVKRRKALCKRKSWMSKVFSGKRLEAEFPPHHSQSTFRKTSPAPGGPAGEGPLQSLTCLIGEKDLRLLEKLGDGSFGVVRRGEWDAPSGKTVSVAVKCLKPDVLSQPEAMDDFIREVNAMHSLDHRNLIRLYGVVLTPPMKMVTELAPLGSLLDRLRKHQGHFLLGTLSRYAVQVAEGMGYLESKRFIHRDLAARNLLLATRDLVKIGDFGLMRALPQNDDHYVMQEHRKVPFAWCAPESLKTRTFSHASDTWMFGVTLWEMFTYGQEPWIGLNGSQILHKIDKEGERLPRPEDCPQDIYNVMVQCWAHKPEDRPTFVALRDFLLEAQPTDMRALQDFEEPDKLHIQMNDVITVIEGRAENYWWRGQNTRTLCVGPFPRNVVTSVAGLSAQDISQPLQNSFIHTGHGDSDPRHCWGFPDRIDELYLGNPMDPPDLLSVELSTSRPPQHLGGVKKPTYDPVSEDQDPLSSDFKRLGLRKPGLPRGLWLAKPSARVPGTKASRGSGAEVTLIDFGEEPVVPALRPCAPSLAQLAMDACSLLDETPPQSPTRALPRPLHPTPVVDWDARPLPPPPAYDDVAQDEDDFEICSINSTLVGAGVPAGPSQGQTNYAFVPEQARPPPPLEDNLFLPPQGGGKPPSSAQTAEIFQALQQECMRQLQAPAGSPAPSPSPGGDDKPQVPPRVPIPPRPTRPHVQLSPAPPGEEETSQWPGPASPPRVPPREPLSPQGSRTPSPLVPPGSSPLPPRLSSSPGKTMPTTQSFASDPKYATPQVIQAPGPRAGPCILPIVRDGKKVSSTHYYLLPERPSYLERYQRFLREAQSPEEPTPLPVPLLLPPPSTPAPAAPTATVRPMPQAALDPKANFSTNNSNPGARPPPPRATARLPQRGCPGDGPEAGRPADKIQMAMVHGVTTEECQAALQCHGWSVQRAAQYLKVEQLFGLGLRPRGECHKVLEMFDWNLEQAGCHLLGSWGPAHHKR
Protocol: as §1

ALK [2] = target: T1, ALK; experiment: Enzymatic kinetic analysis at various ATP concentrations; type: biochemical
Protocol: (§2) SY-707 ( Figure 1A) was originally developed as an ALK inhibitor. […] To evaluate the in vitro enzymatic potency and selectivity of SY-707, a kinase panel screening on 96 kinases was performed to determine the inhibitory activities of SY-707 at a concentration of 1 mM. […] Then, enzymatic kinetic analysis of ALK and FAK was performed to explore the mechanisms of inhibition effect of SY-707. Activities of ALK or FAK were estimated at various concentrations of ATP in the presence or absence of SY-707.
(§3) (C) ALK enzyme activities were evaluated at various concentrations of ATP (0–50 μM) in the presence of different concentrations of SY-707. (D) FAK enzyme activities were evaluated at various concentrations of ATP (0–333 μM) in the presence of different concentrations of SY-707.

FAK = FAK (Homo sapiens, UniProt Q05397); experiment: as above; type: biochemical
Sequence of FAK (Q05397 whole entry): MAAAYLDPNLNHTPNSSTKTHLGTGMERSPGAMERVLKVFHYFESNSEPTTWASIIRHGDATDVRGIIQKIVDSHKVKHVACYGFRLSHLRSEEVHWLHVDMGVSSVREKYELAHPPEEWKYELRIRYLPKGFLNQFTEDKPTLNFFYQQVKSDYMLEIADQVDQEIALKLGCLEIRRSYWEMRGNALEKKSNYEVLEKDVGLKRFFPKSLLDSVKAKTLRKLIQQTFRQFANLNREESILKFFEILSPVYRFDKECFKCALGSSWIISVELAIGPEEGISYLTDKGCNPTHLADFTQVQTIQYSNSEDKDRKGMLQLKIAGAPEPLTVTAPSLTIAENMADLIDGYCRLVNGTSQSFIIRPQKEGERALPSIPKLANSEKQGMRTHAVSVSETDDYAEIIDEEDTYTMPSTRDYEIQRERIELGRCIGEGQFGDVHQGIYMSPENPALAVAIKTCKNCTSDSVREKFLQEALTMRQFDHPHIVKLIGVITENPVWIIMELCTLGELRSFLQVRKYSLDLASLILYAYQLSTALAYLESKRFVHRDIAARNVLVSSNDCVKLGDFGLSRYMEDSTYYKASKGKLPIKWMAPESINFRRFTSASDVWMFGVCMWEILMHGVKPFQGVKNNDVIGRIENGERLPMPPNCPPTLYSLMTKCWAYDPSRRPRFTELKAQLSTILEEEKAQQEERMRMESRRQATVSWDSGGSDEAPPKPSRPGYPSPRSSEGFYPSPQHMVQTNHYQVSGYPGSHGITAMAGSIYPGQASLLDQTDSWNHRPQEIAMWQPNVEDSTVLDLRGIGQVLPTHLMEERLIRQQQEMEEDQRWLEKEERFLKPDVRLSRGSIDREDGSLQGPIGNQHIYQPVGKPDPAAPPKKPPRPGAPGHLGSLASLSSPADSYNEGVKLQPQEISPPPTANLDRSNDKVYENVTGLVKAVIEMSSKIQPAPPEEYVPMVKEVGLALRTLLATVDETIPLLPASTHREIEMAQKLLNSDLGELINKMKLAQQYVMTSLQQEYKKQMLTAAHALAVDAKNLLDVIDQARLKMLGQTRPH
Protocol: as §2, §3

[3] = test system: phosphorylation of Pyk2 at Tyr402; experiment: Western blot of Pyk2 phosphorylation in MCF-7 cells; type: cell-based; details: MCF-7, 1 h treatment
Protocol: (§4) Equal amounts of cell lysates were loaded onto 10% SDS-PAGE gel and separated by electrophoresis. Separated proteins were then electro-transferred onto polyvinylidene fluoride (PVDF) membranes (Millipore, Bedford, USA). After being blocked with Tris-buffered saline containing 0.1% Tween-20 (TBST) and 5% bovine serum albumin (BSA), the membranes were incubated with primary antibodies at room temperature for 2 hours or at 4°C, then washed with TBST, followed by treatment with horseradish peroxidase (HRP)-conjugated goat anti-rabbit IgG secondary antibody at room temperature for another 1 h. The targeted protein bands were visualized using an enhanced chemiluminescence (ECL) plus system (Thermo Fisher Scientific). […]
(§5) Figure4 Inhibitory effects of SY-707 on the phosphorylation of FAK(A,B) Concentration-dependent inhibition of SY-707 on phosphorylation of FAK in T47D (A) and MCF-7 (B) cells. […] Cell lysates were analyzed by western blot analysis using specific antibodies against p-FAK, p-Pyk2, p-AKT and p-ERK respectively. […] Cell lysates were analyzed by western blot analysis using specific antibodies against p-IGF1R, p-STAT3, p-AKT and p-ERK respectively.

[4] = test system: phosphorylation of Pyk2 at Tyr402; experiment: Western blot of Pyk2 phosphorylation in T47D cells; type: cell-based; details: 1 h treatment
Protocol: as §4, §5

COc1cc(N2CCC(N3CCN(C)CC3)CC2)ccc1Nc1nc2c(c(Nc3ccccc3S(=O)(=O)NC(C)C)n1)CCN2 [SY-707, N-isopropyl-2-((2-((2-methoxy-4-(4-(4-methylpiperazin-1-yl)piperidin-1-yl)phenyl)amino)-6,7-dihydro-5H-pyrrolo[2,3-d]pyrimidin-4-yl)amino)benzenesulfonamide]
IC50 (LTK): 1.9 ± 0.18 nM | IC50 (PYK2): 2.4 ± 0.8 nM | IC50 (ALK [1]): 2.4 nM | IC50 (FES): 81.8 ± 19 nM | IC50 (FER): 52.3 ± 2.3 nM | IC50 (IRK): 7.9 ± 0.3 nM | IC50 (IGF1R): 10.6 ± 0.58 nM | IC50 (ACK): 28.7 ± 3.5 nM | mode of inhibition of ALK kinase (ALK [2]; Lineweaver-Burk plots): ATP-competitive inhibitor | Ki', ALK enzyme-ATP complex (ALK [2]; enzyme-ATP complex): 19.2 nM | Ki (ALK [2]; free enzyme, read-out: dissociation constant (Ki), free ALK enzyme): 0.9 nM | mode of inhibition of FAK kinase (FAK; double-reciprocal plots): ATP-competitive inhibitory behavior | Ki', FAK enzyme-ATP complex (FAK; enzyme-ATP complex): 16.1 nM | Ki (FAK; free enzyme, read-out: dissociation constant (Ki), free FAK enzyme): 0.56 nM | phosphorylation of Pyk2 at Tyr402 [3]: dose-dependently suppressed | phosphorylation of Pyk2 at Tyr402 [4]: dose-dependently suppressed
